Values of other authors as cited in patent US12673067B2, “Methods, agents, and devices for local neuromodulation of autonomic nerves” (Tulavi Therapeutics, Inc., priority 2016, dated 2026).

Legend:
[1] = target: T1, GPR120 (Homo sapiens, UniProt Q5NUL3)
T1 sequence (Q5NUL3 1-361): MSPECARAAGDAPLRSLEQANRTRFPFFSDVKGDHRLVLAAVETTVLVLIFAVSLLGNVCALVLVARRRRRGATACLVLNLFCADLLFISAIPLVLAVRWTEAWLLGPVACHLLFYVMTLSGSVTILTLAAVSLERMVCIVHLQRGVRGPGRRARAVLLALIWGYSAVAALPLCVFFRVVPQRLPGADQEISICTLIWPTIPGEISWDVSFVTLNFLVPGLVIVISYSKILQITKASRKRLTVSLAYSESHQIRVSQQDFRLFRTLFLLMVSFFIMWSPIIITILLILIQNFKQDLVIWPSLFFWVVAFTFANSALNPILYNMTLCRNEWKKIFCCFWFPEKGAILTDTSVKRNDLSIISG

[2] = target: GPR40 (Homo sapiens, UniProt O14842); settings: at 100 μM
Chain of GPR40 (O14842 whole entry): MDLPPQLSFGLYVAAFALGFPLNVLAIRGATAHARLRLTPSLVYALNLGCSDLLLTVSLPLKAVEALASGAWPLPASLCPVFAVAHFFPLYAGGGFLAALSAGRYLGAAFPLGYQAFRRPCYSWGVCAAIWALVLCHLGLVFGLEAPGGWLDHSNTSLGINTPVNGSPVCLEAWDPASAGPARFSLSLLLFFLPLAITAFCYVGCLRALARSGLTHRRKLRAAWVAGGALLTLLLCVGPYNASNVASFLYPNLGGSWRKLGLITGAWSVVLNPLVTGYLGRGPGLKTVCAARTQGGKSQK

CC(C)=CCC/C(C)=C/CC/C(C)=C/Cc1c(O)cc(C)c(C(=O)O)c1O [Grifolic acid]
GPR120 agonism [1]: Weak GPR120 partial agonist | GPR40 activity [2]: without GPR40 activity
